Experimental data reported in patent US20160235727A1, “NOVEL PYRROLIDINE DERIVED BETA 3 ADRENERGIC RECEPTOR AGONISTS” (Merck Sharp & Dohme Corp., priority 2013, published 2016).

Biological target: T1, human β3-AR (Homo sapiens, UniProt P13945)
T1 construct: expressed in transfected cells; host or cells: CHO (Chinese hamster ovary) cells, stably transfected
Experiment: cAMP functional agonist assay (LANCE TR-FRET) in CHO cells expressing cloned human β3-AR
Assay type: cell-based
Details: for EC50: CHO cells stably expressing cloned human β3-adrenoceptor, cAMP release, read-out: Human β3-AR Agonism EC50; for Human β3-AR Agonist Activity (%): percent maximum activation relative to isoproterenol; for Fold drop in potency vs. 2-chloropyridine analog: EC50 of comparative example divided by EC50 of corresponding 2-chloropyridine compound

T1 sequence (P13945 whole entry): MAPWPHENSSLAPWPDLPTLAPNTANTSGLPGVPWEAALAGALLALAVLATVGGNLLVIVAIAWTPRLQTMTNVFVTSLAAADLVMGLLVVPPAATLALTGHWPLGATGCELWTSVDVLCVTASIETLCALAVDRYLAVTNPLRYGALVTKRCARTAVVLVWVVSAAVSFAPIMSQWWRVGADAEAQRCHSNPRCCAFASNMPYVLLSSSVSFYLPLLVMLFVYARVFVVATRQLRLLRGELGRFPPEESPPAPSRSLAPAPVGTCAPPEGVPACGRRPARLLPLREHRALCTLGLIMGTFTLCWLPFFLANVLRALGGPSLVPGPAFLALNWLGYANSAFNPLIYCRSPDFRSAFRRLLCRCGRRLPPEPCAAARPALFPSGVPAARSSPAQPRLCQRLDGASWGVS

CC(O)c1cncc(CN(C)C(=O)c2ccc(C[C@@H]3CC[C@H]([C@H](O)c4ccc(Cl)nc4)N3)cc2)c1 (stereo partly drawn) [Example 31-A, (((2S,5R)-5-((R)-(6-chloropyridin-3-yl)(hydroxy)methyl)pyrrolidin-2-yl)methyl)-N-((5-(1-hydroxyethyl)pyridin-3-yl)methyl)-N-methylbenzamide]
EC50: 7 nM | Human β3-AR Agonist Activity (%): 96%

CN(Cc1n[nH]c2c1CCC2)C(=O)c1ccc(C[C@@H]2CC[C@H]([C@H](O)c3ccc(Cl)nc3)N2)cc1 [Example 13-A, 4-(((2S,5R)-5-((R)-(6-chloropyridin-3-yl)(hydroxy)methyl)pyrrolidin-2-yl)methyl)-N-methyl-N-((1,4,5,6-tetrahydrocyclopenta[c]pyrazol-3-yl)methyl)benzamide]
EC50: 2 nM | Human β3-AR Agonist Activity (%): 99%

Cc1[nH]nc(CN(C)C(=O)c2ccc(C[C@@H]3CC[C@H]([C@H](O)c4ccc(Cl)nc4)N3)cc2)c1Cl [Example 17-A, N-((4-chloro-5-methyl-1H-pyrazol-3-yl)methyl)-4-(((2S,5R)-5-((R)-(6-chloropyridin-3-yl)(hydroxy)methyl)pyrrolidin-2-yl)methyl)-N-methylbenzamide]
EC50: 4 nM | Human β3-AR Agonist Activity (%): 94%

CN(Cc1cccnc1F)C(=O)c1ccc(C[C@@H]2CC[C@H]([C@H](O)c3ccc(Cl)nc3)N2)cc1 [Example 26-A, 4-(((2S,5R)-5-((R)-(6-chloropyridin-3-yl)(hydroxy)methyl)pyrrolidin-2-yl)methyl)-N-((2-fluoropyridin-3-yl)methyl)-N-methylbenzamide]
EC50: 35 nM | Human β3-AR Agonist Activity (%): 97%

CCN(Cc1cccnc1)C(=O)c1ccc(C[C@@H]2CC[C@H]([C@H](O)c3ccc(Cl)nc3)N2)cc1 [Example 22-A, 4-(((2S,5R)-5-((R)-(6-chloropyridin-3-yl)(hydroxy)methyl)pyrrolidin-2-yl)methyl)-N-ethyl-N-(pyridin-3-ylmethyl)benzamide]
EC50: 5 nM | Human β3-AR Agonist Activity (%): 62%

Cc1cc(CN(C)C(=O)c2ccc(C[C@@H]3CC[C@H]([C@H](O)c4cccnc4)N3)cc2)cnc1F [Example 39-H]
EC50: 7 nM | Fold drop in potency vs. 2-chloropyridine analog: 14.1 fold | Human β3-AR Agonist Activity (%): 103%

CN(Cc1cnccn1)C(=O)c1ccc(C[C@@H]2CC[C@H]([C@H](O)c3cncc(F)c3)N2)cc1 [Example 40-R, 4-(((2S,5R)-5-((R)-(5-fluoropyridin-3-yl)(hydroxy)methyl)pyrrolidin-2-yl)methyl)-N-methyl-N-(pyrazin-2-ylmethyl)benzamide]
EC50: 373 nM | Fold drop in potency vs. 2-chloropyridine analog: 32.0 fold | Human β3-AR Agonist Activity (%): 87%

CN(Cc1cncc(C(C)(C)O)c1)C(=O)c1ccc(C[C@@H]2CC[C@H]([C@H](O)c3ccccc3)N2)cc1 [Example 32-B, 4-(((2S,5R)-5-((R)-hydroxy(phenyl)methyl)pyrrolidin-2-yl)methyl)-N-((5-(2-hydroxypropan-2-yl)pyridin-3-yl)methyl)-N-methylbenzamide]
EC50: 22 nM | Fold drop in potency vs. 2-chloropyridine analog: 1.8 fold | Human β3-AR Agonist Activity (%): 109%

CN(Cc1n[nH]c2c1CCCC2)C(=O)c1ccc(C[C@@H]2CC[C@H]([C@H](O)c3ccc(Cl)nc3)N2)cc1 [Example 14-A, 4-(((2S,5R)-5-((R)-(6-chloropyridin-3-yl)(hydroxy)methyl)pyrrolidin-2-yl)methyl)-N-methyl-N-((4,5,6,7-tetrahydro-1H-indazol-3-yl)methyl)benzamide]
EC50: 3 nM | Human β3-AR Agonist Activity (%): 108%
